IC50 data for 30 compounds are collected here from patent US9493446B2, “Orexin receptor antagonists which are [ortho bi-(hetero-)aryl]-[2-(meta bi-(hetero-)aryl)-pyrrolidin-1-yl]-methanone derivatives” (Actelion Pharmaceuticals Ltd, priority 2012, dated 2016).

The target of one assay is human orexin-2 receptor (Homo sapiens (Human), UniProt O43614). Briefly: Intracellular calcium measurement (FLIPR), CHO cells expressing human orexin-2 receptor, 3 nM orexin-A. Type of assay: cell-based. Conditions: CHO cells expressing human orexin-2 receptor, FLIPR, 3 nM orexin-A; geometric mean if determined several times; read-out: IC50 OX2. In outline:
(§1)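 Antagonist is added 120 min before agonist. Fluo-4 AM-loaded CHO cells carry human orexin-1 or orexin-2 receptor, and calcium is read by FLIPR.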

For a further assay, the target named is orexin-1 (Homo sapiens (Human), UniProt O43613). Description: Intracellular calcium measurement (FLIPR), CHO cells expressing human orexin-1 receptor, 3 nM orexin-A. Type of assay: cell-based. Conditions: read-out: IC50 OX1. In outline:
as §1

The mark [1] stands for this setting: CHO cells expressing human orexin-1 receptor, FLIPR, 3 nM orexin-A, geometric mean if determined several times.

Where two headings read alike, the source gives them in different places.

human orexin-2 receptor, sequence (O43614 whole entry): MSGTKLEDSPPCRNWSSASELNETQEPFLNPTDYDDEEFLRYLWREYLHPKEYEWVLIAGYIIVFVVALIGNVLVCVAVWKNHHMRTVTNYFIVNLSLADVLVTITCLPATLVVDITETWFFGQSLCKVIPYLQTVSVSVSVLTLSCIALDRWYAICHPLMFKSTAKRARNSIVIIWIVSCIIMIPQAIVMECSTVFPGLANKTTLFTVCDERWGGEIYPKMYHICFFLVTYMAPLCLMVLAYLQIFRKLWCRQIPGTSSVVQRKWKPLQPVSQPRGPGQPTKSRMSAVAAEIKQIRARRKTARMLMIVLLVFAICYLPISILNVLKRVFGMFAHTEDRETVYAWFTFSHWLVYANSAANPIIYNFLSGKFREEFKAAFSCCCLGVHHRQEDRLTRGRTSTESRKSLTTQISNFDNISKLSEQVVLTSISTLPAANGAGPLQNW
orexin-1, sequence (O43613 whole entry): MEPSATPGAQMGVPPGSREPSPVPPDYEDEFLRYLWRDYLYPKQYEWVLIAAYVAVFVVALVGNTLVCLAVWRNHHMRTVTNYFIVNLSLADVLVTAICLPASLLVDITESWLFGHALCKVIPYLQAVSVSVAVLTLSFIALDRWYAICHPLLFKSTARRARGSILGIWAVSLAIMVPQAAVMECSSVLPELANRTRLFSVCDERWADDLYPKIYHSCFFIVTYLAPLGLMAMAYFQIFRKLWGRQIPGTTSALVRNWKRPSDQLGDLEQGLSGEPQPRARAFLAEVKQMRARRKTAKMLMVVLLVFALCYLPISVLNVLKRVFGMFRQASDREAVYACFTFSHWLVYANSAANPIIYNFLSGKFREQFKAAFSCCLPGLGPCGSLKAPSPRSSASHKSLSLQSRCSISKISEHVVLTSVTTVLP

For the compound `COc1cc(C(=O)N2CCC[C@H]2c2nnc(-c3cccc(F)c3OC)[nH]2)c(-n2nccn2)cc1C` [compound 473, {(S)-2-[5-(3-Fluoro-2-methoxy-phenyl)-4H-[1,2,4]triazol-3-yl]-pyrrolidin-1-yl}-(5-methoxy-4-methyl-2-[1,2,3]triazol-2-yl-phenyl)-methanone], the IC50 on human orexin-2 receptor stood at 6 nM; at orexin-1 (setting [1]), 57 nM.
As to `COc1c(F)cccc1-c1nnc([C@@H]2CCCN2C(=O)c2cc(C)ccc2-n2nccn2)[nH]1` [compound 497, {(S)-2-[5-(3-Fluoro-2-methoxy-phenyl)-4H-[1,2,4]triazol-3-yl]-pyrrolidin-1-yl}-(5-methyl-2-[1,2,3]triazol-2-yl-phenyl)-methanone], the IC50 on human orexin-2 receptor was 46 nM; on orexin-1 (setting [1]) it was 49 nM.
Turning to `Cc1ccc(-n2nccn2)c(C(=O)N2CCC[C@H]2c2nc(-c3ccc(F)c(F)c3)no2)c1` [compound 20, {(S)-2-[3-(3,4-Difluoro-phenyl)-[1,2,4]oxadiazol-5-yl]-pyrrolidin-1-yl}-(5-methyl-2-[1,2,3]triazol-2-yl-phenyl)-methanone], the IC50 was found to be 177 nM at human orexin-2 receptor and 600 nM at orexin-1 (setting [1]).
For `COc1cc(C(=O)N2CCC[C@H]2c2nnc(-c3ccccc3OC(F)(F)F)[nH]2)c(-n2nccn2)cc1Cl` [compound 509], the IC50 on human orexin-2 receptor was found to be 3 nM; at orexin-1 (setting [1]) it was 22 nM.
Turning to `Cc1ccc(-n2nccn2)c(C(=O)N2CCC[C@H]2c2nc(-c3ccccc3OC(F)F)no2)c1` [compound 33, {(S)-2-[3-(2-Difluoromethoxy-phenyl)-[1,2,4]oxadiazol-5-yl]-pyrrolidin-1-yl}-(5-methyl-2-[1,2,3]triazol-2-yl-phenyl)-methanone], the figures for the IC50 at human orexin-2 receptor and at orexin-1 (setting [1]) were 9 nM and 62 nM, respectively.
The like results for `COc1ccc(C)c(-c2nc([C@@H]3CCCN3C(=O)c3cc(C)ccc3-n3nccn3)no2)c1` [compound 410, {(S)-2-[5-(5-Methoxy-2-methyl-phenyl)-[1,2,4]oxadiazol-3-yl]-pyrrolidin-1-yl}-(5-methyl-2-[1,2,3]triazol-2-yl-phenyl)-methanone] were, in that order, 14 nM and 140 nM.
For `COc1ccc(C(=O)N2CCC[C@H]2c2nc(-c3ccccc3OC(F)(F)F)no2)c(-n2nccn2)c1` [compound 169, (4-Methoxy-2-[1,2,3]triazol-2-yl-phenyl)-{(S)-2-[3-(2-trifluoromethoxy-phenyl)-[1,2,4]oxadiazol-5-yl]-pyrrolidin-1-yl}-methanone], the IC50 on human orexin-2 receptor was 90 nM; on orexin-1 (setting [1]) it was 137 nM.
Consider `CCc1ccccc1-c1noc([C@@H]2CCCN2C(=O)c2cc(C)ccc2-n2nccn2)n1` [compound 25, {(S)-2-[3-(2-Ethyl-phenyl)-[1,2,4]oxadiazol-5-yl]-pyrrolidin-1-yl}-(5-methyl-2-[1,2,3]triazol-2-yl-phenyl)-methanone], for which the IC50 on human orexin-2 receptor stood at 11 nM; at orexin-1 (setting [1]), 19 nM.
Turning to `COc1cc(C(=O)N2CCC[C@H]2c2cc(-c3ccccc3)on2)c(-n2nccn2)cc1C` [compound 432, (5-Methoxy-4-methyl-2-[1,2,3]triazol-2-yl-phenyl)-[(S)-2-(5-phenyl-isoxazol-3-yl)-pyrrolidin-1-yl]-methanone], the IC50 came to 16 nM on human orexin-2 receptor and 322 nM on orexin-1 (setting [1]).
In the case of `CCOc1c(F)cccc1-c1noc([C@@H]2CCCN2C(=O)c2cc(OC)c(Cl)cc2-n2nccn2)n1` [compound 283], the IC50 on human orexin-2 receptor is 7 nM; on orexin-1 it was 34 nM.
For `Cc1ccc(C(=O)N2CCC[C@H]2c2nnc(-c3ccccc3OC(F)(F)F)[nH]2)c(-n2nccn2)c1` [compound 501, (4-Methyl-2-[1,2,3]triazol-2-yl-phenyl)-{(S)-2-[5-(2-trifluoromethoxy-phenyl)-4H-[1,2,4]triazol-3-yl]-pyrrolidin-1-yl}-methanone], the IC50 on human orexin-2 receptor is 4 nM; on orexin-1 (setting [1]), 27 nM.
Regarding `Cc1ccc(-n2cccn2)c(C(=O)N2CCC[C@H]2c2nc(-c3ccccc3OC(F)(F)F)no2)n1` [compound 160, (6-Methyl-3-pyrazol-1-yl-pyridin-2-yl)-{(S)-2-[3-(2-trifluoromethoxy-phenyl)-[1,2,4]oxadiazol-5-yl]-pyrrolidin-1-yl}-methanone], the IC50 on human orexin-2 receptor came out at 212 nM; on orexin-1 (setting [1]), 238 nM.
`Cc1c(Cl)cccc1-c1noc([C@@H]2CCCN2C(=O)c2cc(F)ccc2-c2ccn[nH]2)n1` [compound 116]: the IC50 at human orexin-2 receptor stood at 34 nM; on orexin-1 (setting [1]) it was 457 nM.
With `CCc1ccccc1-c1nc([C@@H]2CCCN2C(=O)c2ccc(C)cc2-n2nccn2)no1` [compound 392, {(S)-2-[5-(2-Ethyl-phenyl)-[1,2,4]oxadiazol-3-yl]-pyrrolidin-1-yl}-(4-methyl-2-[1,2,3]triazol-2-yl-phenyl)-methanone], the IC50 on human orexin-2 receptor and at orexin-1 (setting [1]) was 17 nM throughout.
As to `CCOc1ncccc1-c1noc([C@@H]2CCCN2C(=O)c2cc(OC)c(C)cc2-n2nccn2)n1` [compound 215, {(S)-2-[3-(2-Ethoxy-pyridin-3-yl)-[1,2,4]oxadiazol-5-yl]-pyrrolidin-1-yl}-(5-methoxy-4-methyl-2-[1,2,3]triazol-2-yl-phenyl)-methanone], the IC50 on human orexin-2 receptor came to 3 nM; on orexin-1 (setting [1]), 18 nM.
Consider `Cc1ccc(-n2nccn2)c(C(=O)N2CCC[C@H]2c2nc(-c3cccnc3OC(C)C)no2)c1` [compound 71, {(S)-2-[3-(2-Isopropoxy-pyridin-3-yl)-[1,2,4]oxadiazol-5-yl]-pyrrolidin-1-yl}-(5-methyl-2-[1,2,3]triazol-2-yl-phenyl)-methanone], for which the results for the IC50 at human orexin-2 receptor and at orexin-1 (setting [1]) were 22 nM and 8 nM, respectively.
Turning to `Cc1ccc(-n2cccn2)c(C(=O)N2CCC[C@H]2c2nc(-c3ccccc3OC(F)(F)F)no2)c1` [compound 137, (5-Methyl-2-pyrazol-1-yl-phenyl)-{(S)-2-[3-(2-trifluoromethoxy-phenyl)-[1,2,4]oxadiazol-5-yl]-pyrrolidin-1-yl}-methanone], the IC50 at human orexin-2 receptor is 23 nM; on orexin-1 (setting [1]) it was 33 nM.
Turning to `Cc1ccc(-n2nccn2)c(C(=O)N2CCC[C@H]2c2noc(-c3cccc(F)c3C)n2)c1` [compound 335, {(S)-2-[5-(3-Fluoro-2-methyl-phenyl)-[1,2,4]oxadiazol-3-yl]-pyrrolidin-1-yl}-(5-methyl-2-[1,2,3]triazol-2-yl-phenyl)-methanone], the IC50 turned out to be 4 nM on human orexin-2 receptor and 65 nM at orexin-1 (setting [1]).
As for `Cc1ccc(-n2nccn2)c(C(=O)N2CCC[C@H]2c2nc(-c3cccc(F)c3C)no2)c1` [compound 26, {(S)-2-[3-(3-Fluoro-2-methyl-phenyl)-[1,2,4]oxadiazol-5-yl]-pyrrolidin-1-yl}-(5-methyl-2-[1,2,3]triazol-2-yl-phenyl)-methanone], the IC50 at human orexin-2 receptor was 5 nM; at orexin-1 (setting [1]), 77 nM.
As to `Cc1ccc(-n2nccn2)c(C(=O)N2CCC[C@H]2c2nc(-c3ccccc3OC(F)(F)F)no2)c1F` [compound 145, (2-Fluoro-3-methyl-6-[1,2,3]triazol-2-yl-phenyl)-{(S)-2-[3-(2-trifluoromethoxy-phenyl)-[1,2,4]oxadiazol-5-yl]-pyrrolidin-1-yl}-methanone], the IC50 at human orexin-2 receptor was 15 nM; on orexin-1 (setting [1]), 19 nM.
As to `COc1ccc(C)c(-c2nc([C@@H]3CCCN3C(=O)c3cc(OC)c(Cl)cc3-n3nccn3)no2)c1` [compound 353], the figures for the IC50 at human orexin-2 receptor and on orexin-1 (setting [1]) were 5 nM and 54 nM, respectively.
`COc1cc(C(=O)N2CCC[C@H]2c2noc(-c3cccc(F)c3OC)n2)c(-n2nccn2)cc1C` [compound 341, {(S)-2-[5-(3-Fluoro-2-methoxy-phenyl)-[1,2,4]oxadiazol-3-yl]-pyrrolidin-1-yl}-(5-methoxy-4-methyl-2-[1,2,3]triazol-2-yl-phenyl)-methanone]: the values for the IC50 at human orexin-2 receptor and at orexin-1 (setting [1]) were 1 nM and 13 nM, respectively.
With `COc1ccc(-n2nccn2)c(C(=O)N2CCC[C@H]2c2nc(-c3ccccc3Cl)no2)c1` [compound 240], the IC50 amounted to 147 nM on human orexin-2 receptor and 1330 nM on orexin-1 (setting [1]).
As to `Cc1nc(C(=O)N2CCC[C@H]2c2nnc(-c3ccccc3OC(F)(F)F)o2)c(-c2ccccc2F)s1` [compound 444, [5-(2-Fluoro-phenyl)-2-methyl-thiazol-4-yl]-{(S)-2-[5-(2-trifluoromethoxy-phenyl)-[1,3,4]oxadiazol-2-yl]-pyrrolidin-1-yl}-methanone], the IC50 at human orexin-2 receptor amounted to 60 nM; on orexin-1 (setting [1]) it was 83 nM.
Take `CCOc1c(F)cccc1-c1noc([C@@H]2CCCN2C(=O)c2cc(Cl)c(C)cc2-n2nccn2)n1` [compound 300]: the IC50 at human orexin-2 receptor turned out to be 10 nM; at orexin-1 (setting [1]), 14 nM.
With `Cc1ccc(-n2nccn2)c(C(=O)N2CCC[C@H]2c2nc(-c3cccnc3OC(F)F)no2)c1` [Example 86, {(S)-2-[3-(2-Difluoromethoxy-pyridin-3-yl)-[1,2,4]oxadiazol-5-yl]-pyrrolidin-1-yl}-(5-methyl-2-[1,2,3]triazol-2-yl-phenyl)-methanone], the figures for the IC50 on human orexin-2 receptor and on orexin-1 (setting [1]) were 40 nM and 103 nM, respectively.
Consider `Cc1ccc(-n2nccn2)c(C(=O)N2CCC[C@H]2c2cc(-c3cccc(Cl)c3C)n[nH]2)c1` [compound 534], for which the values for the IC50 on human orexin-2 receptor and at orexin-1 (setting [1]) were 53 nM and 410 nM, respectively.
Turning to `Cc1ccc(-n2nccn2)c(C(=O)N2CCC[C@H]2c2nc(-c3ccnc(Cl)c3)no2)c1` [compound 73], the concentration for half-maximal inhibition (IC50) on human orexin-2 receptor is 1160 nM; at orexin-1 (setting [1]), 3480 nM.
Regarding `Cc1ccc(-n2nccn2)c(C(=O)N2CCC[C@H]2c2noc(-c3cccc(Cl)c3C)n2)c1` [Example 318, {(S)-2-[5-(3-Chloro-2-methyl-phenyl)-[1,2,4]oxadiazol-3-yl]-pyrrolidin-1-yl}-(5-methyl-2-[1,2,3]triazol-2-yl-phenyl)-methanone], the IC50 on human orexin-2 receptor was 7 nM; at orexin-1 (setting [1]), 42 nM.
Turning to `Cc1c(Cl)cccc1-c1noc([C@@H]2CCCN2C(=O)c2ccccc2-n2nccn2)n1` [compound 93], the IC50 was found to be 28 nM at human orexin-2 receptor and 399 nM at orexin-1 (setting [1]).
